Here are results for seven compounds from patent US8815837B2, “Respiratory disease treatment” (Pulmagen Therapeutics (Inflammation) Limited, priority 2008, dated 2014).

SMILES strings stand for the structures.

For series [1] the following is noted: cited from earlier work.
The next series deals with rodent diabetes model. To be noted: oral administration; cited from earlier work.
Series [2] relates to Tobacco Smoke Induced Pulmonary Inflammation. Nature of the series: Pre-clinical mouse model of COPD inflammation: tobacco smoke induced pulmonary inflammation, BAL cell counts. Type of series: in vivo. To be noted: mice, intranasal, BAL 24 h after final TS exposure. The text has this: Pre-Clinical Mouse Model of COPD Inflammation—Tobacco Smoke Induced Pulmonary Inflammation
Protocols for the exposure of mice to TS, obtaining bronchoalveolar lavage (BAL), preparation of cytospin slides for differential cell counts are as outlined below.
Exposure of Mice to TS Daily for 4 or 11 Consecutive Days
In this exposure protocol, mice were exposed in groups of 5 in individual clear polycarbonate chambers (27 cm×16 cm×12 cm). The TS from the cigarettes was allowed to enter the exposure chambers at a flow rate of 100 ml/min. In order to minimise any potential problems caused by repeated exposure to a high level of TS (6 cigarettes), the exposure of the mice to TS was increased gradually over the exposure period to a maximum of 6 cigarettes. The exposure schedule used for 4 days was as follows:
The exposure schedule used for 11 days exposure was as follows:
A further group of mice were exposed to air on a daily basis for equivalent lengths of time as controls (no TS exposure).
Bronchoalveolar Lavage (BAL) Analysis
Bronchoalveolar lavage was performed as follows: the trachea was cannulated using a Portex nylon intravenous cannula (pink luer fitting) shortened to approximately 8 mm. Phosphate buffered saline (PBS) was used as the lavage fluid. A volume of 0.4 ml was gently instilled and withdrawn 3 times using a 1 ml syringe and then placed in an Eppendorf tube and kept on ice prior to subsequent determinations.
Lavage fluid was separated from cells by centrifugation and the supernatant decanted and frozen for subsequent analysis. The cell pellet was re-suspended in a known volume of PBS and total cell numbers calculated by counting a stained (Turks stain) aliquot under a microscope using a haemocytometer.
Differential Cell Counts were Performed as Follows:
The residual cell pellet was diluted to approximately 10^5 cells per ml. A volume of 500 μl was placed in the funnel of a cytospin slide and centrifuged for 8 min at 800 rpm. The slide was air dried and stained using ‘Kwik-Diff’ solutions (Shandon) as per the proprietary instructions. When dried and cover-slipped, differential cells were counted using light microscopy. Up to 400 cells were counted by unbiased operator using light microscopy. Cells were differentiated using standard morphometric techniques.
Rodents such as mice and rats are obligate nasal breathers thus oral delivery of test materials (such as therapeutic agents) for inhalation will not produce good lung exposure. As a consequence, delivery of therapeutic agents to the lungs in rodents is generally achieved by intra-nasal, intra-tracheal or inhalation by whole body aerosol exposure in a chamber.
The chamber method utilises large amounts of test material and is generally reserved for inhalation toxicology studies rather than pharmacological efficacy studies. Intra-tracheal administration is a very efficient delivery method as almost all of the test material is delivered to the lungs, but this is quite an invasive technique. For studies in the mouse particularly, it is also quite technically demanding as the diameter of the trachea is quite small. The intranasal route is less invasive than the intra-tracheal route and so is particularly suitable for repeat dosing studies such as the 4-11 day mouse model described below.
The control group of mice received vehicle 1 hr prior to being exposed to air daily for a maximum of 50 minutes per day. BAL was performed 24 h following the final TS exposure. All compounds were dosed as the HCl salt with doses corrected as base.
[…]
Data Management and Statistical Analysis
All results are presented as individual data points for each animal and the mean value was calculated for each group.

The target in a further series is T1, PPARγ receptor (Homo sapiens, UniProt P37231).
T1 sequence (P37231 1-505): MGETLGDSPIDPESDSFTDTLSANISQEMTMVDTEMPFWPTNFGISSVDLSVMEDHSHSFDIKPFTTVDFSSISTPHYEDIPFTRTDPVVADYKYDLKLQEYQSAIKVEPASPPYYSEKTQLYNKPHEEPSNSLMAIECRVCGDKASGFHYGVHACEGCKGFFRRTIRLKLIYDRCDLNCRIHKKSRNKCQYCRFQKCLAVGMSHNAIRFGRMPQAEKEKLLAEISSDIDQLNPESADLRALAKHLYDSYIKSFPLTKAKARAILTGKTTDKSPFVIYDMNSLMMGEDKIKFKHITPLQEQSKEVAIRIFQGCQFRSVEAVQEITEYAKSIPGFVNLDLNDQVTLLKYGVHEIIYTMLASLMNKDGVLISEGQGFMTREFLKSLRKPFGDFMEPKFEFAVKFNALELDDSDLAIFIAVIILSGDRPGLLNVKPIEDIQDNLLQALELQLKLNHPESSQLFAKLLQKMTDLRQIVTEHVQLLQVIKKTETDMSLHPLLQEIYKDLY
To be noted: page 13 of WO2007100027; cited from earlier work.

The mark [3] stands for this setting: 3 μg/kg, pioglitazone experiment, FIG. 1.
Setting [4] is: 3 μg/kg, pioglitazone experiment, FIG. 2.
Where [5] appears, read: 10 μg/kg, rosiglitazone experiment, FIG. 3.
Where [6] appears, read: 10 μg/kg, rosiglitazone experiment, FIG. 4.
Setting [7] is: 1 μg/kg, pioglitazone experiment, FIG. 1.
Where [8] appears, read: 1 μg/kg, pioglitazone experiment, FIG. 2.
The mark [9] stands for this setting: 3 μg/kg, rosiglitazone experiment, FIG. 3.
[10] abbreviates: 3 μg/kg, rosiglitazone experiment, FIG. 4.

On to `CCc1ccc(CCOc2ccc(CC3SC(=O)NC3=O)cc2)nc1` (racemic) [Racemic pioglitazone, 5-{4-[2-(5-ethylpyridin-2-yl)ethoxy]benzyl}-1,3-thiazolidine-2,4-dione, reference compound], for which the “interconversion of the two enantiomers in vivo” value in series [1] was “interconvert in vivo”. In addition, the “activity of racemate versus individual enantiomers in a rodent diabetes model” value in the series with rodent diabetes model was “no difference in activity”. The “BAL cell influx (total BAL cells) induced by TS” value (from here on “BAL cell influx”) in series [2] (setting [3]) is “significantly inhibited”. In addition, the “BAL neutrophil numbers induced by TS exposure” value (“BAL neutrophil numbers induced” for short) in series [2] (setting [4]) is reported as “significantly inhibited”.
For `CN(CCOc1ccc(CC2SC(=O)NC2=O)cc1)c1ccccn1` (racemic) [Racemic rosiglitazone, 5-(4-{2-[methyl (pyridin-2-yl)amino]ethoxy]benzyl}-1,3-thiazolidine-2,4-dione, reference compound], the “BAL cell influx” value in series [2] (setting [5]) is on record as “significantly inhibited”. The “BAL neutrophil numbers induced” value in series [2] (setting [6]) is given as “significantly inhibited”.
Consider `CCc1ccc(CCOc2ccc(C[C@H]3SC(=O)NC3=O)cc2)nc1.Cl` [Example 4, (5R)-5-{4-[2-(5-ethylpyridin-2-yl)ethoxy]benzyl}-1,3-thiazolidine-2,4-dione hydrochloride], for which the “BAL cell influx” value in series [2] (setting [7]) and in series [2] (setting [3]) was “significantly inhibited” throughout. For the same compound, the “BAL neutrophil numbers induced” value in series [2] (setting [8]) and in series [2] (setting [4]) was “significantly inhibited” each time.
With `CCc1ccc(CCOc2ccc(C[C@@H]3SC(=O)NC3=O)cc2)nc1.Cl` [Example 6, (5S)-5-{4-[2-(5-ethylpyridin-2-yl)ethoxy]benzyl}-1,3-thiazolidine-2,4-dione hydrochloride], the “BAL cell influx” value in series [2] (setting [7]) and in series [2] (setting [3]) was “failed to inhibit” each time. Moreover, the “BAL neutrophil numbers induced” value in series [2] (setting [8]) and in series [2] (setting [4]) was “ineffective” each time.
Consider `CN(CCOc1ccc(C[C@H]2SC(=O)NC2=O)cc1)c1ccccn1.Cl` [Example 8, (5R)-5-(4-{2-[methyl(pyridin-2-yl)amino]ethoxy}benzyl)-1,3-thiazolidine-2,4-dione hydrochloride], for which the “BAL cell influx” value in series [2] (setting [9]) and in series [2] (setting [5]) was “significantly inhibited” each time. Moreover, the “BAL neutrophil numbers induced” value in series [2] (setting [10]) and in series [2] (setting [6]) was “significantly inhibited” throughout.
For the compound `CN(CCOc1ccc(C[C@@H]2SC(=O)NC2=O)cc1)c1ccccn1.Cl` [Example 9, (5S)-5-(4-{2-[methyl(pyridin-2-yl)amino]ethoxy}benzyl)-1,3-thiazolidine-2,4-dione hydrochloride monohydrate], the “BAL cell influx” value in series [2] (setting [9]) and in series [2] (setting [5]) was “failed to inhibit” each time. For the same compound, the “BAL neutrophil numbers induced” value in series [2] (setting [10]) and in series [2] (setting [6]) was “ineffective” in each case.
With `COc1ccc2nc(COc3ccc(CC4SC(=O)NC4=O)cc3)n(C)c2c1` (centres unmarked) [Rivoglitazone], at PPARγ receptor, the “receptor binding affinity, 5S versus 5R enantiomer” value is given as 5S enantiomer also has higher receptor binding affinity than the 5R enantiomer.
